Test results published in US4620871A (priority 1980, dated 1986).

Columns and labels:
[1] = system: Tobacco callus; assay: Growth of tobacco callus vs kinetin (Example 14); type: cell-based; conditions: 2 ppm active agent; for Dry weight of the callus / Speed of growth: kinetin 1 ppm; for activity at 2 ppm: Nicotiana tabacum, 504 h, kinetin 1 ppm = 100, read-out: Speed of growth, Index %
Experimental: An untreated culture medium served as control. Tobacco callus was grown on the treated and untreated culture media (incubation period: 3 weeks), and the daily growth, the increase in cell number and the frequency of mitosis were measured according to the method of Skoog.
The test described in Example 13 was repeated so that a culture medium containing 1 ppm of kinetin was used as control, and the compositions according to the invention were applied in amounts corresponding to 2 ppm of active agent.

[2] = system: Egri leanyka vine variety; assay: Berry yield and sugar content of vine, Egri leanyka (Example 33); type: in vivo; conditions: for Berry yield: 3 x 2 kg/ha, control 151.15; for Sugar content: control 16.7; for Sugar yield: control 18.93
Experimental: (§1) Vine stands were sprayed with the compositions according to the invention to examine their effects exerted on the berry yield and sugar content. The compositions, diluted with water, were sprayed three times onto the plants. The first treatment was performed prior to flowering, the second one three weeks later, and the third one six weeks after the first one. The dose applied was 2 kg/ha in each of the treatments.
(§2) Comparative tests were also performed with commonly used growth regulating compositions, i.e. CCC (chlorocholine chloride), Ethrel (or Etefon; 2-chloroethylphosphonic acid) and Nevirol (N-phenyl-phthalaiminic acid). The results were compared to those observed with the untreated controls.
(§3) Two vine varieties, Pannonia and Egri leanyka, were involved in the tests.

[3] = system: Pannonia vine variety; assay: Berry yield and sugar content of vine, Pannonia (Example 33); type: in vivo; conditions: for Berry yield: 3 x 2 kg/ha, control 216; for Sugar content: control 13.0; for Sugar yield: control 28.08
Experimental: as §1, §2, §3

[4] = system: leaves of Pinto beans; assay: Stimulation of carbon dioxide fixation, Pinto beans (Example 21); conditions: for Radioactivity A: A = in the light, control 2.14; for Radioactivity A / Radioactivity B / Radioactivity C / Stimulation: zeatin 20, kinetin/benzyladenine 30, others 200 ppm; for Radioactivity B: B = in the dark, control 0.18; for Radioactivity C: C = photosynthetic, control 2.32
Experimental: The tests were performed on leaves of Pinto beans. The leaf segments were treated with an endogeneous cytokinin (zeatin), synthetic cytokinins (kinetin, benzyladenine) or with the compositions according to the invention, respectively, by floating the leaf segments on the solution of the test substance for 18 hours, thereafter the leaf segments were exposed to labelled carbon dioxide (activity: 100 μCi/5000 ml of ^14 CO2) for 0.5 hours.

[5] = system: Pinto beans; assay: Preservation of chlorophyll in Pinto beans (Example 17); type: in vivo; conditions: zeatin 20 ppm, kinetin/benzyladenine 30 ppm, others 200 ppm; for Extinction: 665 mμ, 200 mg fresh weight, 2 weeks
Experimental: Endogeneous and synthetic cytokinins were applied as comparative substances. Solutions with varying concentrations, but always more dilute than 10^-4 moles, were applied in the tests.
The tests were performed on Pinto beans. The plants were treated with an endogenous cytokinin (zeatine), synthetic cytokinins (kinetin, benzyladenine) or cytokinin-like compounds, respectively, and the chlorophyll content of the leaves was determined 2 weeks after the treatment by measuring the extinction of the extract of the leaves at 665 mμ.

[6] = system: leaves of Pinto bean; assay: Stimulation of photolytic activity, HTO, Pinto bean (Example 23); conditions: 18 hours, zeatin 20, kinetin/benzyladenine 30, others 200 ppm; for Photolytic activity: control 7.64
Experimental: The stimulating effects of an endogeneous cytokinin (zeatin), synthetic cytokinins (kinetin, benzyladenine) and the cytokinin-like regulators according to the invention exerted on the photolytic activity connected to the decomposition of HTO were examined on leaves of Pinto bean. The leaf discs were floated for 18 hours on solutions of the substances under examination, and then exposed to a radioactivity of 200 μCi/100 ml for one hour to effect photolysis of HTO.

[7] = system: leaves of Pinto bean; assay: Protein synthesis, glycine-2-14C incorporation in Pinto bean leaves (Example 19); conditions: 18 hours, zeatin 20 ppm, kinetin/benzyladenine 30 ppm, others 200 ppm; for Radioactivity of the TCA-insoluble fraction: control 3.17
Experimental: The tests were performed on leaves of Pinto bean. The leaf segments were treated with an endogeneous cytokinin (zeatin), synthetic cytokinins (kinetin, benzyladenine) or with the compositions according to the invention, respectively, by floating the leaf segments on the solution of the test substance for 18 hours. Thereafter the leaf segments were exposed to a labelled amino acid (glycine-2-^14 C) for 3 hours, and the incorporation of the amino acid was determined by radiometry.

[8] = system: callus isolated from Datura innoxia Mill. roots; assay: Growth of callus isolated from Datura innoxia Mill. roots (Example 15); type: cell-based; conditions: with kinetin (2 ppm)
[9] = system: Pinto bean; assay: Stimulation of membrane activity (nitrate uptake), Pinto bean (Example 25); type: in vivo; conditions: zeatin 20, kinetin/benzyladenine 30, others 200 ppm; for Protein nitrogen / Total nitrogen: 2 weeks; for Protein nitrogen: control 2.4; for Total nitrogen: control 3.8; for Protein nitrogen content in % of the total nitrogen content: control 63
Experimental: The tests were performed on Pinto bean. The plants were treated with solutions of an endogeneous cytokinin (zeatin), synthetic cytokinins and membraneactive regulators according to the invention, respectively, and the leaves of the plants were analyzed 2 weeks after the treatment.

[10] = system: Soybean; assay: Total and protein nitrogen content of soybean (Example 39); type: in vivo; conditions: for Protein nitrogen content: control 1.9; for Total nitrogen content: control 2.6; for Protein nitrogen content, increase / Total nitrogen content, increase: in vivo
Description: The effects of 1,4-dihydroxyphthalazine and salts thereof exerted on the total nitrogen content and protein nitrogen content of soybean were examined as described in Example 27. The plants were sprayed with the compositions according to the invention at the beginning of the flowering of the apical cluster.

Compound | Berry yield [2] [q/ha] | Sugar content [2] [%] | Sugar yield [2] [q/ha] | Sugar content, increase [3] [%] | Berry yield [3] [q/ha] | Sugar content [3] [%] | Sugar yield [3] [q/ha] | Radioactivity A [4] [dpm/200 mg fresh weight] | Radioactivity B [4] [dpm/200 mg fresh weight] | Radioactivity C [4] [dpm/200 mg fresh weight] | Stimulation [4] [%] | Extinction [5] | Promotion [5] [%] | Stimulation [6] [%] | Photolytic activity [6] | Radioactivity of the TCA-insoluble fraction [7] | Protein nitrogen [9] | Total nitrogen [9] | Protein nitrogen, stimulation [9] [%] | Protein nitrogen content in % of the total nitrogen content [9] [%] | other results
CCCn1cnc2ccccc21 [N--(n-Propyl)-benzimidazolium chloride] |  |  |  |  |  |  |  |  |  |  |  |  |  |  |  |  |  |  |  |  | Dry weight of the callus [1]: 194.09 mg; Speed of growth [1]: 116.89; activity at 2 ppm [1]: 119%
O=P(O)(O)CCCl [Ethrel, 2-chloroethylphosphonic acid] | 164.61 | 15.7 | 19.38 | 7.5 | 194 | 14.0 | 27.2 |  |  |  |  |  |  |  |  |  |  |  |  |  | Berry yield, increase [2]: 8.9%; Sugar yield, increase [2]: 2.3%
N=C(N)N.Oc1nnc(O)c2ccccc12 [1,4-Dihydroxy-phthalazine monoguanidine salt] |  |  |  |  |  |  |  | 3.75 | 0.28 | 3.47 | 50.7 |  |  |  |  |  |  |  |  |  | 
C[N+](C)(C)CCCl.[Cl-] [CCC, 2-chloroethyltrimethyl-ammonium chloride] | 144.61 | 17.0 | 18.44 | 23.0 | 175 | 16.0 | 28.0 |  |  |  |  |  |  |  |  |  |  |  |  |  | 
c1coc(CNc2ncnc3[nH]cnc23)c1 [Kinetin] |  |  |  |  |  |  |  | 4.15 | 0.37 | 4.52 | 95.2 | 1.120 | 66.0 | 82 | 13.96 dpm/mg of glucose | 5.36 1000 dpm/200 mg fresh weight | 2.8 % of dry weight | 3.8 % of dry weight | 16.6 | 73 | Stimulation [7]: 69.4%; Dry substance [8]: 3.52%; Dry weight of the callus [8]: 175.06 mg; Fresh weight of the callus [8]: 4.9694 g; Growth, dry weight [8]: 15.56; Growth, fresh weight [8]: 15.56; Speed of growth [8]: 98.28 mg/day; Dry weight of the callus [1]: 174.11 mg; Speed of growth [1]: 97.17; activity at 2 ppm [1]: 100%
O=C(O)c1ccccc1C(=O)Nc1ccccc1 [Nevirol, N-phenyl-phthalaiminic acid] | 169.22 | 16.4 | 20.81 | 18.4 | 238 | 15.4 | 36.52 |  |  |  |  |  |  |  |  |  |  |  |  |  | Berry yield, increase [2]: 11.9%; Sugar yield, increase [2]: 9.9%; Sugar yield, increase [3]: 30%
NN.NN.Oc1nnc(O)c2ccccc12 [1,4-Dihydroxyphthalazine dihydrazine salt] |  |  |  |  |  |  |  |  |  |  |  |  |  |  |  |  |  |  |  |  | Protein nitrogen content [10]: 3.6 % of dry substance; Total nitrogen content [10]: 3.9 % of dry substance; Protein nitrogen content, increase [10]: 89.5%; Total nitrogen content, increase [10]: 50.0%
NN.Oc1nnc(O)c2ccccc12 [1,4-Dihydroxyphthalazine hydrazine salt] |  |  |  |  |  |  |  |  |  |  |  |  |  |  |  |  |  |  |  |  | Protein nitrogen content [10]: 3.1 % of dry substance; Total nitrogen content [10]: 3.7 % of dry substance; Protein nitrogen content, increase [10]: 63.2%; Total nitrogen content, increase [10]: 42.4%
c1ccc(CNc2ncnc3[nH]cnc23)cc1 [Benzyladenine, benzyladenine] |  |  |  |  |  |  |  | 4.87 | 0.41 | 5.28 | 128.0 | 1.229 | 83.1 | 125 | 17.21 dpm/mg of glucose | 5.92 1000 dpm/200 mg fresh weight | 2.8 % of dry weight | 3.8 % of dry weight | 16.6 | 73 | Stimulation [7]: 87.0%
C/C(=C\CNc1ncnc2[nH]cnc12)CO [Zeatin] |  |  |  |  |  |  |  | 5.12 | 0.46 | 5.58 | 140.8 | 1.283 | 91.3 | 108 | 15.94 dpm/mg of glucose | 6.18 1000 dpm/200 mg fresh weight | 2.8 % of dry weight | 3.8 % of dry weight | 16.6 | 73 | activation at 20 ppm ([7]; read-out: Stimulation): 95.1%; stimulation of CO2 fixation, comparison in words [4]: the most potent stimulating agent
